Each structure is given as a SMILES string.

For data set [1], the system named is HC6X cells.
Protocol: We cultured HC6X cells (both in an H9 background and in an) BJ1-iPSc background in 384 well format in AAGLY-supplemented medium.
PSC, HC3X and HC6X cells were differentiated in a 384 well format. Cells were treated with 14 different concentrations of compounds in 6 repeats. As a negative control 41 wells were left untreated. After 24 h of exposure media was aspirated and fresh media was added to the cells supplemented with 0.3 mM of DRAQ 7 (Abcam; ab109202) and Hoechst dye (1/1000, Sigma, 33258) for 25 min at 37°. Cells were fixed with 4% paraformaldehyde. Imaging was done using an Operetta High-Content Imaging System (Perkin Elmer) and image analysis was performed using Harmony software (Perkin Elmer). Relative cell number was calculated as the percentage of living cells (draq7 positive amount subtracted from the Hoechst positive amount) relative to the average of living cells in the control wells. As a positive control, 2 donors of PHHs were seeded at 10 000 cells per well. Drugs were administrated after 8 hours of attachment. HepG2 cells were seeded at 40 000 cells per well. For control conditions HepG2 cells were exposed after 2 days of culture. For AAGLY conditions HepG2 cells were maintained in the supplemented medium for 30 days before exposure.
The test system of data set [2] is HepG2 cells. How it is done:
PSC, HC3X and HC6X cells were differentiated in a 384 well format. Cells were treated with 14 different concentrations of compounds in 6 repeats. As a negative control 41 wells were left untreated. After 24 h of exposure media was aspirated and fresh media was added to the cells supplemented with […] of DRAQ 7 (Abcam; ab109202) and Hoechst dye (1/1000, Sigma, 33258) for 25 min at 37°. Cells were fixed with 4% paraformaldehyde. Imaging was done using an Operetta High-Content Imaging System (Perkin Elmer) and image analysis was performed using Harmony software (Perkin Elmer). Relative cell number was calculated as the percentage of living cells (draq7 positive amount subtracted from the Hoechst positive amount) relative to the average of living cells in the control wells. As a positive control, 2 donors of PHHs were seeded at 10 000 cells per well. Drugs were administrated after 8 hours of attachment. HepG2 cells were seeded at 40 000 cells per well. For control conditions HepG2 cells were exposed after 2 days of culture.

As to `CC(=O)Nc1ccc(O)cc1` [APAP, acetaminophen], the Toxicity result is listed as “no toxicity” in data set [1] and “not able to pick up toxicity” in data set [2].

These data come from patent publication US20200199528A1, “CELL CULTURE MEDIA FOR DIFFERENTIATION OF STEM CELLS INTO HEPATOCYTES” (KATHOLIEKE UNIVERSITEIT LEUVEN, priority 2017, published 2020).
